US20140242712A1, “FLUORESCENCE DETECTION OF POISON OAK OIL” (priority 1999, published 2014)

How the values were obtained:
[1] = storage stability of the boronic acid on exposure to air; type: physicochemical; conditions: without taking any precautions to avoid exposure to air
[2] = in protic solvent; cited from earlier work

Row | Compound | stability of the sample on storage [1] | rate constant k of reduction of nitroxide by phenols (hydrogen transfer) [2] [M⁻¹ s⁻¹]
1 | CCCCB(O)O [n-butyl boronic acid] | stable for over a year | 
2 | Cc1c(C)c2c(c(C)c1O)CCC(C)(C(=O)O)O2 (stereo not shown) [TROLOX] |  | 0.2
3 | Cc1cc(C(C)(C)C)c(O)c(C(C)(C)C)c1 [BHT] |  | 0.003
4 | O=C(O)c1cc(O)c(O)c(O)c1 [gallic acid] |  | 0.003
